{"source": "patent US9974785B2", "about": "“Aromatic heterocyclic derivatives and pharmaceutical applications thereof” (SUNSHINE LAKE PHARMA CO., LTD., priority 2014, dated 2018)", "key": {"[1]": {"target": "human 5-HT6 receptor (Homo sapiens (Human), UniProt P50406)", "sequence (P50406 whole entry)": "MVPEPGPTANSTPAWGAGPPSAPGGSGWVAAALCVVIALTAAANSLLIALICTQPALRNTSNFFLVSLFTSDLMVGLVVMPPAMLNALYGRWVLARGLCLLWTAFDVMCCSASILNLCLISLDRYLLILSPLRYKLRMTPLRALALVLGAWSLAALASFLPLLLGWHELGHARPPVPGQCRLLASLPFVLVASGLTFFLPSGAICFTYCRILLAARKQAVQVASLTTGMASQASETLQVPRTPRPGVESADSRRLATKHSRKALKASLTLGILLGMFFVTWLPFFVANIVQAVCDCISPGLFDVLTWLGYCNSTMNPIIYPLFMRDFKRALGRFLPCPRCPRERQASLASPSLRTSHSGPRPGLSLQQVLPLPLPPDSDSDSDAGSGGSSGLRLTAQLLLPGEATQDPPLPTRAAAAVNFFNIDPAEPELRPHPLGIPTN", "test": "Radioligand binding assay, human 5-HT6 receptor expressed in CHO cell", "conditions": "2 nM [3H]LSD", "method": "Example A: The Binding Affinities of the Compounds of this Invention to Human 5-HT6 Receptor Expressed in CHO Cell were Evaluated by Radioligand Binding Assay as Follows\n32 μg membrane proteins of CHO cell expressing human 5-HT6 receptor, 2 nM of radioactive marker [3H]LSD, a compound of the present invention having different test concentrations, 100 μM 5-HT (5-HT was used to eliminate nonspecific binding sites) and a buffer solution were mixed uniformly. Then the resulting mixture was incubated at 37° C. for 120 min, in which the buffer solution comprised 50 mM Tris-HCl (pH 7.4), 10 mM MgCl2, 0.5 mM EDTA, 10 μM pargyline and 20 mg/L protease inhibitor.\nAfter incubation, the resulting mixture was filtered by a fiberglass filter (GF/B, Packard) in vacuo, and the filter membrane of the fiberglass filter was preimpregnated with 0.3% PEI before the filtering and washed with 50 mM of Tris-HCl for several times after the filtering. After the filter membrane was dried, and the radioactivity of filter membrane was determined by liquid scintillation counting by using a scintillometer (Topcount, Packard). The reference standard was 5-HT, and competitive inhibition curves were plotted based on several inhibition ratios and the corresponding compound concentrations. IC50 values were calculated by non-linear regression analysis using Hill equation curves, and the Ki values were calculated from IC50 by using the ChengPrusoff equation."}, "[2]": {"test": "Stability in rat liver microsomes", "assay_type": "in vitro ADME", "conditions": "rat liver microsome 0.5 mg/mL, 1 μM compound, 37° C.; for half-life at 1 μM: pH 7.4; for CLint scaled at 1 μM: pH 7.4, read-out: Intrinsic clearance", "method": "(§1) Example C: Evaluation of the Stability of the Compounds of the Invention in Rat and Human Liver Microsomes\n(§2) The compound of the invention and rat liver microsome or human liver microsome were placed in 0.1 M potassium phosphate buffer (containing 1.0 mM EDTA, pH=7.4) at 37° C., and the mixture was incubated at 37° C. The concentrations of the compound at different incubation time points were determined, and the half-life of the compound was calculated by curve plotted based on the relative contents of the compound and the corresponding incubation times by using GraphPad Prism 5.01. Then the intrinsic clearance was calculated.\n(§3) The peak area ratio of sample to internal standard was analyzed by the LC/MS/MS system. The content of the compound at 0 min was 100%, and the relative contents of the compound at different time points were calculated. The half-life of the compound was calculated by curve plotted based on the relative contents of the compound and the corresponding incubation times, and the intrinsic clearance was calculated."}, "[3]": {"test": "Stability in human liver microsomes", "assay_type": "in vitro ADME", "method": "as §1, §2, §3"}}}
{"smiles": "O=S(=O)(c1ccccc1)n1cc(C(F)F)c2c(N3CCNCC3)cccc21", "note": "[Example 1, 3-(difluoromethyl)-1-(phenylsulfonyl)-4-(piperazin-1-yl)-1H-indole]", "values": [{"measurement": "Ki", "setting": "[1]", "value": 1.6, "unit": "nM"}]}
{"smiles": "O=S(=O)(c1ccccc1Br)n1cc(C(F)F)c2c(N3CCNCC3)cccc21", "note": "[Example 4, 1-((2-bromophenyl)sulfonyl)-3-(difluoromethyl)-4-(piperazin-1-yl)-1H-indole]", "values": [{"measurement": "Ki", "setting": "[1]", "value": 1.1, "unit": "nM"}, {"measurement": "half-life at 1 μM", "setting": "[2]", "value": 30.4, "unit": "min"}, {"measurement": "CLint scaled at 1 μM", "setting": "[2]", "value": 81.8, "unit": "mL/min/kg"}, {"measurement": "half-life at 1 μM", "setting": "[3]; liver microsomes, human liver microsome 0.5 mg/mL, 1 μM compound, 37° C., pH 7.4", "value": 157, "unit": "min"}, {"measurement": "CLint scaled at 1 μM", "setting": "[3]; liver microsomes, human liver microsome 0.5 mg/mL, 1 μM compound, 37° C., pH 7.4, read-out: Intrinsic clearance", "value": 11.1, "unit": "mL/min/kg"}]}
{"smiles": "O=S(=O)(c1cccc(Cl)c1)n1cc(C(F)F)c2c(N3CCNCC3)cccc21", "note": "[Example 6, 1-((3-chlorophenyl)sulfonyl)-3-(difluoromethyl)-4-(piperazin-1-yl)-1H-indole]", "values": [{"measurement": "Ki", "setting": "[1]", "value": 0.68, "unit": "nM"}, {"measurement": "half-life at 1 μM", "setting": "[2]", "value": 35.5, "unit": "min"}, {"measurement": "CLint scaled at 1 μM", "setting": "[2]", "value": 70, "unit": "mL/min/kg"}, {"measurement": "degradation in human liver microsomes in vitro", "setting": "[3]; in 60 minutes", "value": "almost had no degradation"}]}
{"smiles": "Cc1ccc(S(=O)(=O)n2cc(C(F)F)c3c(N4CCNCC4)cccc32)cc1", "note": "[Example 7, 3-(difluoromethyl)-4-(piperazin-1-yl)-1-tosyl-1H-indole]", "values": [{"measurement": "Ki", "setting": "[1]", "value": 6.4, "unit": "nM"}]}
{"smiles": "COc1ccc(S(=O)(=O)n2cc(C(F)F)c3c(N4CCNCC4)cccc32)cc1", "note": "[Example 8, 3-(difluoromethyl)-1-((4-methoxyphenyl)sulfonyl)-4-(piperazin-1-yl)-1H-indole]", "values": [{"measurement": "Ki", "setting": "[1]", "value": 12, "unit": "nM"}]}
{"smiles": "O=S(=O)(c1ccc2ccccc2c1)n1cc(C(F)F)c2c(N3CCNCC3)cccc21", "note": "[Example 10, 3-(difluoromethyl)-1-(naphthalen-2-ylsulfonyl)-4-(piperazin-1-yl)-1H-indole]", "values": [{"measurement": "Ki", "setting": "[1]", "value": 0.5, "unit": "nM"}]}
{"smiles": "O=S(=O)(c1ccccc1)n1cc(C(F)F)c2cc(N3CCNCC3)ccc21", "note": "[Example 11, 3-(difluoromethyl)-1-(phenylsulfonyl)-5-(piperazin-1-yl)-1H-indole]", "values": [{"measurement": "Ki", "setting": "[1]", "value": 11, "unit": "nM"}]}
{"smiles": "O=S(=O)(c1ccccc1F)n1cc(C(F)F)c2cc(N3CCNCC3)ccc21", "note": "[Example 12, 3-(difluoromethyl)-1-((2-fluorophenyl)sulfonyl)-5-(piperazin-1-yl)-1H-indole]", "values": [{"measurement": "Ki", "setting": "[1]", "value": 30, "unit": "nM"}]}
{"smiles": "O=S(=O)(c1ccccc1Cl)n1cc(C(F)F)c2cc(N3CCNCC3)ccc21", "note": "[Example 13, 1-((2-chlorophenyl)sulfonyl)-3-(difluoromethyl)-5-(piperazin-1-yl)-1H-indole]", "values": [{"measurement": "Ki", "setting": "[1]", "value": 13, "unit": "nM"}]}
{"smiles": "O=S(=O)(c1ccccc1Br)n1cc(C(F)F)c2cc(N3CCNCC3)ccc21", "note": "[Example 14, 1-((2-bromophenyl)sulfonyl)-3-(difluoromethyl)-5-(piperazin-1-yl)-1H-indole]", "values": [{"measurement": "Ki", "setting": "[1]", "value": 20, "unit": "nM"}]}
{"smiles": "Cc1ccc(S(=O)(=O)n2cc(C(F)F)c3cc(N4CCNCC4)ccc32)cc1", "note": "[Example 15, 3-(difluoromethyl)-5-(piperazin-1-yl)-1-tosyl-1H-indole]", "values": [{"measurement": "Ki", "setting": "[1]", "value": 17, "unit": "nM"}]}
{"smiles": "COc1ccc(S(=O)(=O)n2cc(C(F)F)c3cc(N4CCNCC4)ccc32)cc1", "note": "[Example 16, 3-(difluoromethyl)-1-((4-methoxyphenyl)sulfonyl)-5-(piperazin-1-yl)-1H-indole]", "values": [{"measurement": "Ki", "setting": "[1]", "value": 67, "unit": "nM"}]}
{"smiles": "O=S(=O)(c1cccc(F)c1)n1cc(C(F)F)c2cc(N3CCNCC3)ccc21", "note": "[Example 17, 3-(difluoromethyl)-1-((3-fluorophenyl)sulfonyl)-5-(piperazin-1-yl)-1H-indole]", "values": [{"measurement": "Ki", "setting": "[1]", "value": 13, "unit": "nM"}]}
{"smiles": "O=S(=O)(c1cccc(Cl)c1)n1cc(C(F)F)c2cc(N3CCNCC3)ccc21", "note": "[Example 18, 1-((3-chlorophenyl)sulfonyl)-3-(difluoromethyl)-5-(piperazin-1-yl)-1H-indole]", "values": [{"measurement": "Ki", "setting": "[1]", "value": 15, "unit": "nM"}]}
{"smiles": "O=S(=O)(c1cccc(Br)c1)n1cc(C(F)F)c2cc(N3CCNCC3)ccc21", "note": "[Example 19, 1-((3-bromophenyl)sulfonyl)-3-(difluoromethyl)-5-(piperazin-1-yl)-1H-indole]", "values": [{"measurement": "Ki", "setting": "[1]", "value": 13, "unit": "nM"}]}
{"smiles": "O=S(=O)(c1ccc(Cl)cc1)n1cc(C(F)F)c2cc(N3CCNCC3)ccc21", "note": "[Example 20, 1-((4-chlorophenyl)sulfonyl)-3-(difluoromethyl)-5-(piperazin-1-yl)-1H-indole]", "values": [{"measurement": "Ki", "setting": "[1]", "value": 44, "unit": "nM"}]}
{"smiles": "O=S(=O)(c1ccc(Br)cc1)n1cc(C(F)F)c2cc(N3CCNCC3)ccc21", "note": "[Example 21, 1-((4-bromophenyl)sulfonyl)-3-(difluoromethyl)-5-(piperazin-1-yl)-1H-indole]", "values": [{"measurement": "Ki", "setting": "[1]", "value": 44, "unit": "nM"}]}
{"smiles": "O=S(=O)(c1ccccc1C(F)(F)F)n1cc(C(F)F)c2c(N3CCNCC3)cc(Cl)cc21", "note": "[Example 23, 6-chloro-3-(difluoromethyl)-4-(piperazin-1-yl)-1-((2-(trifluoromethyl)phenyl)sulfonyl)-1H-indole]", "values": [{"measurement": "Ki", "setting": "[1]", "value": 9.3, "unit": "nM"}]}
{"smiles": "O=S(=O)(c1ccccc1F)n1cc(C(F)F)c2c(N3CCNCC3)cc(Cl)cc21", "note": "[Example 24, 6-chloro-3-(difluoromethyl)-1-((2-fluorophenyl)sulfonyl)-4-(piperazin-1-yl)-1H-indole]", "values": [{"measurement": "Ki", "setting": "[1]", "value": 1.6, "unit": "nM"}]}
{"smiles": "O=S(=O)(c1ccccc1Cl)n1cc(C(F)F)c2c(N3CCNCC3)cc(Cl)cc21", "note": "[Example 25, 6-chloro-1-((2-chlorophenyl)sulfonyl)-3-(difluoromethyl)-4-(piperazin-1-yl)-1H-indole]", "values": [{"measurement": "Ki", "setting": "[1]", "value": 0.68, "unit": "nM"}]}
{"smiles": "O=S(=O)(c1ccccc1Br)n1cc(C(F)F)c2c(N3CCNCC3)cc(Cl)cc21", "note": "[Example 26, 1-((2-bromophenyl)sulfonyl)-6-chloro-3-(difluoromethyl)-4-(piperazin-1-yl)-1H-indole]", "values": [{"measurement": "Ki", "setting": "[1]", "value": 1.1, "unit": "nM"}]}
{"smiles": "O=S(=O)(c1cccc(F)c1)n1cc(C(F)F)c2c(N3CCNCC3)cc(Cl)cc21", "note": "[Example 27, 6-chloro-3-(difluoromethyl)-1-((3-fluorophenyl)sulfonyl)-4-(piperazin-1-yl)-1H-indole]", "values": [{"measurement": "Ki", "setting": "[1]", "value": 1.9, "unit": "nM"}]}
{"smiles": "O=S(=O)(c1cccc(Cl)c1)n1cc(C(F)F)c2c(N3CCNCC3)cc(Cl)cc21", "note": "[Example 28, 6-chloro-1-((3-chlorophenyl)sulfonyl)-3-(difluoromethyl)-4-(piperazin-1-yl)-1H-indole]", "values": [{"measurement": "Ki", "setting": "[1]", "value": 1.4, "unit": "nM"}]}
{"smiles": "O=S(=O)(c1cccc(Br)c1)n1cc(C(F)F)c2c(N3CCNCC3)cc(Cl)cc21", "note": "[Example 29, 1-((3-bromophenyl)sulfonyl)-6-chloro-3-(difluoromethyl)-4-(piperazin-1-yl)-1H-indole]", "values": [{"measurement": "Ki", "setting": "[1]", "value": 1.3, "unit": "nM"}]}
{"smiles": "O=S(=O)(c1cccc(F)c1)n1cc(C(F)F)c2c(N3CCNCC3)cc(Br)cc21", "note": "[Example 35, 6-bromo-3-(difluoromethyl)-1-((3-fluorophenyl)sulfonyl)-4-(piperazin-1-yl)-1H-indole]", "values": [{"measurement": "Ki", "setting": "[1]", "value": 1.9, "unit": "nM"}]}
{"smiles": "O=S(=O)(c1cccc(Cl)c1)n1cc(C(F)F)c2c(N3CCNCC3)cc(Br)cc21", "note": "[Example 36, 6-bromo-1-((3-chlorophenyl)sulfonyl)-3-(difluoromethyl)-4-(piperazin-1-yl)-1H-indole]", "values": [{"measurement": "Ki", "setting": "[1]", "value": 1.7, "unit": "nM"}]}
{"smiles": "O=S(=O)(c1cccc(Br)c1)n1cc(C(F)F)c2c(N3CCNCC3)cc(Br)cc21", "note": "[Example 37, 6-bromo-1-((3-bromophenyl)sulfonyl)-3-(difluoromethyl)-4-(piperazin-1-yl)-1H-indole]", "values": [{"measurement": "Ki", "setting": "[1]", "value": 1.5, "unit": "nM"}]}
{"smiles": "CN1CCN(c2cccc3c2c(C(F)F)cn3S(=O)(=O)c2cccc(F)c2)CC1", "note": "[Example 42, 3-(difluoromethyl)-1-((3-fluorophenyl)sulfonyl)-4-(4-methylpiperazin-1-yl)-1H-indole]", "values": [{"measurement": "Ki", "setting": "[1]", "value": 0.7, "unit": "nM"}]}
{"smiles": "CCN1CCN(c2cccc3c2c(C(F)F)cn3S(=O)(=O)c2cccc(F)c2)CC1", "note": "[Example 43, 3-(difluoromethyl)-4-(4-ethylpiperazin-1-yl)-1-((3-fluorophenyl)sulfonyl)-1H-indole]", "values": [{"measurement": "Ki", "setting": "[1]", "value": 2.3, "unit": "nM"}]}
{"smiles": "CC(C)N1CCN(c2cccc3c2c(C(F)F)cn3S(=O)(=O)c2cccc(F)c2)CC1", "note": "[Example 44, 3-(difluoromethyl)-1-((3-fluorophenyl)sulfonyl)-4-(4-isopropylpiperazin-1-yl)-1H-indole]", "values": [{"measurement": "Ki", "setting": "[1]", "value": 27, "unit": "nM"}]}
{"smiles": "O=S(=O)(c1cccc(F)c1)n1cc(C(F)F)c2c(NC3CCNCC3)cccc21", "note": "[Example 52, 3-(difluoromethyl)-1-((3-fluorophenyl)sulfonyl)-N-(piperidin-4-yl)-1H-indol-4-amine]", "values": [{"measurement": "Ki", "setting": "[1]", "value": 18, "unit": "nM"}]}
{"smiles": "O=S(=O)(c1cccc(Br)c1)n1cc(C(F)F)c2c(NC3CCNCC3)cccc21", "note": "[Example 54, 1-((3-bromophenyl)sulfonyl)-3-(difluoromethyl)-N-(piperidin-4-yl)-1H-indol 4-amine]", "values": [{"measurement": "Ki", "setting": "[1]", "value": 11, "unit": "nM"}]}
{"smiles": "O=S(=O)(c1ccccc1)n1cc(C(F)F)c2c(NC3CCNCC3)cccc21", "note": "[Example 55, 3-(difluoromethyl)-1-(phenylsulfonyl)-N-(piperidin-4-yl)-1H-indol-4-amine]", "values": [{"measurement": "Ki", "setting": "[1]", "value": 65, "unit": "nM"}]}
